From US8609680B2, “2,3-dihydro-1H-inden-1-yl-2,7-diazaspiro[3.5] nonane derivatives” (Pfizer Inc., priority 2010, dated 2013)
Where two headings read alike, the source gives them in different places.

Tests used:
human GHSR1a [1] = molecular target: T1, human GHSR1a (Homo sapiens, UniProt Q92847); assay: Human Ghrelin SPA Binding Assay
T1 construct: expressed in transfected cells; host or cells: HEK293 Tetracycline-Inducible cell line, used as membranes
Source text: The SPA format was utilized for high throughput screening of test compounds and filter binding served for more comprehensive binding characterization.
Human Ghrelin SPA Binding Assay

human GHSR1a [2] = molecular target: T1, human GHSR1a; assay: Human Ghrelin Functional Assay (DELFIA GTP-binding assay); format: biochemical; conditions: GTP-Europium exchange, human GHSR1a membranes, with and without ghrelin at EC80
Description: Human Ghrelin Functional Assay
To measure the ability of test compounds in the present invention to modulate the activity of human GHSR1a (agonize, antagonize, partially agonize, inversely agonize), a DELFIA GTP-binding assay (Perkin Elmer, AD0260 and AD0261) is performed. The assay monitors the ligand-dependent exchange of GDP for GTP. GPCR activation results in an increase in fluorescence as receptor-bound GDP is replaced by Europium-labeled GTP.
Ghrelin functional assays are performed in a final volume of 39.5 μl containing 720 ng human GHSR1a (HEK293 Tetracycline-Inducible cell line expressing the human growth secretagogue receptor la, prepared as membranes), 9 nM GTP-Europium and varying concentrations of test compound or vehicle. To test for receptor antagonism, membranes are incubated in the presence of agonist ghrelin (Anaspec, 24158) at the EC80 concentration, plus test compound or vehicle.
Briefly, test compounds are prepared at room temperature in 384-well plates (Matrix, 4340). […] Samples are then transferred as 6 μl to 384-well filter plates (Pall, 5071) containing 30 μl of 24 μg/ml hGHSR1a membrane and 0.35 mg/ml saponin (Perkin Elmer, AD0261) in basal buffer.
The mixture is incubated 24 minutes at room temperature with gentle shaking, followed by the addition of 3.5 μl of 100 nM GTP-Europium in 50 mM HEPES, pH 7.4. Samples are shielded from light and incubated for 90 minutes further at room temperature with gentle shaking. The reactions are suctioned dry with vacuum, washed three times with 75 μl ice cold 1× GTP Wash Solution (Perkin Elmer, AD0261), and immediately read on the Envision 2101 Multilabel Reader (Perkin Elmer) using excitation filter 320 nm and emission filter 615 nm.

[3] = SPA format, [125I] ghrelin displacement, human GHSR1a membranes, Ki=IC50/(1+[ligand]/Kd)

T1 sequence (Q92847 whole entry): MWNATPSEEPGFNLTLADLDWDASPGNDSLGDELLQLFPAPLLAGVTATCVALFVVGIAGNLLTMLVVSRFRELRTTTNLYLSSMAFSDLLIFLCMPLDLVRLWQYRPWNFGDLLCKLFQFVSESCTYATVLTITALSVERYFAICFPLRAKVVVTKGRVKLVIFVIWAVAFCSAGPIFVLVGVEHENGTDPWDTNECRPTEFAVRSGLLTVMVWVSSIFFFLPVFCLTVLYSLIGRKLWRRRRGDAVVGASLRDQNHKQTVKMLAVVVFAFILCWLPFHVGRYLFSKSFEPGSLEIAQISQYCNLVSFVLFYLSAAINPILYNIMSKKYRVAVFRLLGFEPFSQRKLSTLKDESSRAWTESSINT

| Molecule | Ki (human GHSR1a [1]; [3]) [nM] | functional comment (human GHSR1a [2]) | IC50 (human GHSR1a [1]) [nM] | Ki (human GHSR1a [1]) [nM] | IC50 (human GHSR1a [1]; SPA format, [125I] ghrelin displacement, human GHSR1a membranes from HEK293 Tetracycline-Inducible cell line) [nM] |
| --- | --- | --- | --- | --- | --- |
| 5-{(1R)-1-[7-(2,3-dihydro[1,4]dioxino[2,3-b]pyridin-6-yl)acetyl)-2,7-diazaspiro[3.5]non-2-yl]-2,3-dihydro-1H-inden-5-yl}pyridine-2-carboxamide [Example 9A] | 13.9 | inverse agonist | – | – | 15.9 |
| COc1ccc(CC(=O)N2CCC3(CC2)CN(C2CCc4cc(-c5cc(C#N)ccn5)ccc42)C3)nc1 (racemic) [Example 2C] | – | inverse agonist | 13.7 | 38 | – |
| COc1ccc(CC(=O)N2CCC3(CC2)CN([C@@H]2CCc4cc(-c5ncco5)ccc42)C3)cc1 [Example 3AD] | – | inverse agonist | 19.5 | 15.5 | – |
| O=C(Cc1ccc(C2CC2)cn1)N1CCC2(CC1)CN([C@@H]1CCc3cc(-c4ncccn4)ccc31)C2 [Example 3AF] | – | inverse agonist | 7.41 | 6.13 | – |
| Cc1cc(C)nc(-c2ccc3c(c2)CC[C@H]3N2CC3(CCN(C(=O)Cc4cn5nc(C)sc5n4)CC3)C2)n1 [Example 3AL] | – | inverse agonist | 7.73 | 6.91 | – |
| Cc1cnc(-c2ccc3c(c2)CC[C@H]3N2CC3(CCN(C(=O)Cc4cn5nc(C)sc5n4)CC3)C2)nc1 [Example 3AN] | – | inverse agonist | 16.6 | 14.9 | – |
| Cc1cc(-c2ccc3c(c2)CC[C@H]3N2CC3(CCN(C(=O)Cc4cn5nc(C)sc5n4)CC3)C2)nc(C)n1 [Example 3AO] | – | inverse agonist | 16.8 | 15.1 | – |
| Cc1ccn2cc(CC(=O)N3CCC4(CC3)CN([C@@H]3CCc5cc(-c6cc(C#N)ncn6)ccc53)C4)nc2c1 [Example 3AP] | – | inverse agonist | 27.2 | 24.4 | – |
| O=C(Cc1ccc(C2CC2)cc1)N1CCC2(CC1)CN([C@@H]1CCc3cc(-c4ncccn4)ccc31)C2 [Example 5A-1, (R)-7-[(4-cyclopropylphenyl)acetyl]-2-(5-pyrimidin-2-yl-2,3-dihydro-1H-inden-1-yl)-2,7-diazaspiro[3.5]nonane] | – | – | 4.5 | 3.77 | – |
| CCc1ccc(CC(=O)N2CCC3(CC2)CN([C@@H]2CCc4cc(-n5nccn5)ccc42)C3)nc1 [Example 5D] | 16.1 | – | 18.6 | – | – |
| Cc1ccc(CC(=O)N2CCC3(CC2)CN([C@@H]2CCc4cc(-c5ncccn5)ccc42)C3)cc1 [Example 5E] | – | – | 18.6 | 15.6 | – |
| CCc1ccc(CC(=O)N2CCC3(CC2)CN([C@@H]2CCc4cc(-c5ncccn5)ccc42)C3)cc1 [Example 5F] | – | – | 12.8 | 10.4 | – |
| Cc1ccc(CC(=O)N2CCC3(CC2)CN([C@@H]2CCc4cc(-n5nccn5)ccc42)C3)nc1 [Example 6A, 7-[(5-methylpyridin-2-yl)acetyl]-2-[5-(2H-1,2,3-triazol-2-yl)-2,3-dihydro-1H-inden-1-yl]-2,7-diazaspiro[3.5]nonane] | – | – | – | 54.8 | – |
| CCOc1ccc(CC(=O)N2CCC3(CC2)CN([C@@H]2CCc4cc(-n5nccn5)ccc42)C3)nc1 [Example 6G] | – | – | 43.2 | 34.4 | – |
| COc1ccc(CC(=O)N2CCC3(CC2)CN([C@@H]2CCc4cc(-n5cncn5)ccc42)C3)nc1 [Example 6I] | – | – | 483 | 417 | – |
| Cc1ccc(CC(=O)N2CCC3(CC2)CN([C@@H]2CCc4cc(-c5ncccn5)ccc42)C3)c(C(N)=O)c1 [Example 7A] | – | – | 42.2 | 37.5 | – |
| COc1ccc(CC(=O)N2CCC3(CC2)CN([C@@H]2CCc4cc(-c5ncccn5)ccc42)C3)c(C(N)=O)c1 [Example 7B] | – | – | 25.5 | 22.2 | – |
| COc1ccc(CC(=O)N2CCC3(CC2)CN([C@@H]2CCc4cc(-n5cc(C)cn5)ccc42)C3)nc1 [Example 8A, 7-[(5-methoxypyridin-2-yl)acetyl]-2-[(1R)-5-(4-methyl-1H-pyrazol-1-yl)-2,3-dihydro-1H-inden-1-yl]-2,7-diazaspiro[3.5]nonane] | – | – | 29 | 24.7 | – |
| COc1ccc(CC(=O)N2CCC3(CC2)CN([C@@H]2CCc4cc(-n5cc(C)cn5)ccc42)C3)cc1 [Example 8B] | – | – | 10.5 | 8.97 | – |
| COc1ccc(CC(=O)N2CCC3(CC2)CN([C@@H]2CCc4cc(-n5cccn5)ccc42)C3)nc1 [Example 8C] | – | – | 82.3 | 66.4 | – |
| COc1ccc(CC(=O)N2CCC3(CC2)CN([C@@H]2CCc4cc(-c5ccc(C(N)=O)nc5)ccc42)C3)nc1 [Example 9B] | – | – | 55.2 | 47.5 | – |
| Cc1ccc(CC(=O)N2CCC3(CC2)CN([C@@H]2CCc4cc(-c5ccc(C(N)=O)nc5)ccc42)C3)nc1 [Example 9C] | – | – | 117 | 102 | – |
| Cc1cn2cc(CC(=O)N3CCC4(CC3)CN([C@@H]3CCc5cc(-c6ccc(C(N)=O)nc6)ccc53)C4)nc2s1 [Example 9D] | – | – | 12.2 | 10.6 | – |
| NC(=O)c1ccc(-c2ccc3c(c2)CC[C@H]3N2CC3(CCN(C(=O)Cc4cn5ccccc5n4)CC3)C2)cn1 [Example 9E] | – | – | 33.7 | 29.2 | – |
| Cc1ccn2cc(CC(=O)N3CCC4(CC3)CN([C@@H]3CCc5cc(-c6cnc(C(N)=O)cn6)ccc53)C4)nc2c1 [Example 10B] | – | – | 23.4 | 20.3 | – |
| NC(=O)c1cnc(-c2ccc3c(c2)CC[C@H]3N2CC3(CCN(C(=O)Cc4cn5ccccc5n4)CC3)C2)cn1 [Example 10C] | – | – | 93.1 | 80.8 | – |

Further lines, with some results ahead:

| Ki (human GHSR1a [1]; [3]) [nM] | functional comment (human GHSR1a [2]) | IC50 (human GHSR1a [1]) [nM] | Ki (human GHSR1a [1]) [nM] | Molecule | IC50 (human GHSR1a [1]; SPA format, [125I] ghrelin displacement, human GHSR1a membranes from HEK293 Tetracycline-Inducible cell line) [nM] |
| --- | --- | --- | --- | --- | --- |
| – | inverse agonist | 35.9 | 50.2 | COc1ccc(CC(=O)N2CCC3(CC2)CN(C2CCc4cc(-c5cc(OC)ncn5)ccc42)C3)nc1 (racemic) [Example 2F] | – |
| – | inverse agonist | 92.2 | 218 | COc1ccc(CC(=O)N2CCC3(CC2)CN(C2CCc4cc(-c5cnccn5)ccc42)C3)nc1 (racemic) [Example 2H] | – |
| – | inverse agonist | 15.3 | 51.2 | COc1ccc(CC(=O)N2CCC3(CC2)CN(C2CCc4cc(-c5nc(C)cc(C)n5)ccc42)C3)nc1 (racemic) [Example 2I] | – |
| – | inverse agonist | 22 | – | COc1ccc(CC(=O)N2CCC3(CC2)CN(C2CCc4cc(-c5cccc(C)n5)ccc42)C3)nc1 (racemic) [Example 2J] | – |
| – | inverse agonist | 22.7 | 91.3 | COc1ccc(CC(=O)N2CCC3(CC2)CN(C2CCc4cc(-c5ccc(OC)cn5)ccc42)C3)nc1 (centres unmarked) [Example 2A, 7-[(5-Methoxypyridin-2-yl)acetyl]-2-[5-(5-methoxypyridin-2-yl)-2,3-dihydro-1H-inden-1-yl]-2,7-diazaspiro[3.5]nonane] | – |
| 9.03 | inverse agonist | 9.46 | – | CCc1cnc(-c2ccc3c(c2)CC[C@H]3N2CC3(CCN(C(=O)Cc4ccc(OC)cn4)CC3)C2)nc1 [Example 3A, 2-[(1R)-5-(5-Ethylpyrimidin-2-yl)-2,3-dihydro-1H-inden-1-yl]-7-[(5-methoxypyridin-2-yl)acetyl]-2,7-diazaspiro[3.5]nonane] | – |
| – | inverse agonist | 9.8 | 8.59 | CCc1cc(-c2ccc3c(c2)CC[C@H]3N2CC3(CCN(C(=O)Cc4ccc(OC)cn4)CC3)C2)ncn1 [Example 3AA] | – |
| – | – | 327 | 264 | COc1ccc(CC(=O)N2CCC3(CC2)CN([C@@H]2CCc4cc(-c5nnc(C)s5)ccc42)C3)nc1 [Example 6J] | – |
| – | – | 62.6 | 55.5 | COc1ccc(CC(=O)N2CCC3(CC2)CN([C@@H]2CCc4cc(-c5cnc(C(N)=O)cn5)ccc42)C3)nc1 [Example 10A, 5-[(1R)-1-{7-[(5-methoxypyridin-2-yl)acetyl]-2,7-diazaspiro[3.5]non-2-yl}-2,3-dihydro-1H-inden-5-yl]pyrazine-2-carboxamide] | – |
| – | – | 94.7 | 82.9 | COc1ccc(CC(=O)N2CCC3(CC2)CN([C@@H]2CCc4cc(-c5cc(C(N)=O)ncn5)ccc42)C3)nc1 [Example 10D] | – |
| – | – | 141 | 123 | CCc1ccc(CC(=O)N2CCC3(CC2)CN([C@@H]2CCc4cc(-c5cnc(C(N)=O)cn5)ccc42)C3)nc1 [Example 10H] | – |
| – | – | 33.3 | 28.6 | COc1ccc(CC(=O)N2CCC3(CC2)CN([C@@H]2CCc4cc(-c5ccc(C(N)=O)cn5)ccc42)C3)nc1 [Example 11A, 6-((R)-1-{7-[2-(5-Methoxy-pyridin-2-yl)-acetyl]-2,7-diaza-spiro[3.5]non-2-yl}indan-5-yl)-nicotinamide] | – |
